According to patent US20230144023A1, “USE OF BUTYLPHTHALIDE AND DERIVATIVE THEREOF” (CSPC NBP PHARMACEUTICAL CO., LTD, priority 2020, published 2023):
Read-outs that look alike come from different tables or passages of the source.

Key:
[1] = PK of total paclitaxel in plasma, B16/F10 tumor-bearing mice (Example 3); type: in vivo, C57BL/6N mice; conditions: NBP 3, 10, 30 mg/kg bid i.p. with ab-PTX 25 mg/kg; Cmax, AUC0-t and other indexes
Procedure: Administration volume: 10 mL/kg. […] The administration was performed for 15 consecutive days. The administration volume was 10 mL/kg. Before the administration of the last dose of ab-PTX (0 h), and 5 min, 0.5 […] after the administration, blood was sampled (as detailed in Table 5), anticoagulated with heparin, and centrifuged to separate plasma, which was stored at -80° C. for later use. The total amount of paclitaxel in the plasma was determined by protein precipitation-LC/MS/MS.

[2] = PK of total paclitaxel in plasma, JIMT-1 tumor-bearing mice (Example 4); type: in vivo, Nu/Nu mice; conditions: NBP 6, 20, 60 mg/kg bid gavage with ab-PTX 15 mg/kg i.v.
Procedure: Administration period: 28 days. Administration volume: 10 mL/kg.
The administration period was 28 days. The administration volume was 10 mL/kg.

[3] = system: bortezomib chemotherapy-induced peripheral neuropathy; test: Bortezomib chemotherapy-induced peripheral neuropathy in rats (Example 6); type: in vivo, SD (Sprague Dawley) rats; conditions: compared with the model group
Procedure: (The modeling and administration time are shown in FIG. 11. The animal grouping, the administration method, and the doses are detailed in Table 14). […] (2) Thermal pain threshold: measurements were performed on days 0, 7, 14, and 21. Method: IITC Life Science Electronic Von Frey Anesthesio meter was used and the intensity of the light source was adjusted to obtain a thermal pain threshold baseline of about 3-6 s. […] The rats were placed in a plastic compartment on a glass plate, to make the planta centers of the rats be exposed to the light source. […] (3) Mechanical Stimulus Pain Threshold: Measurements were Performed on Days −1, 6, 13, and 20. Method: the rats were placed in a plastic compartment on a wire mesh, left to stand still for 15 min, stimulated using a stimulation probe with a diameter of 0.4 mm of the IITC Life Science Electronic Von Frey Anesthesio meter at the planta centers of the rats by gradually increasing the force until reflexive withdrawal of the rats.

MM.1S xenograft tumor = test: Influence of NBP on in vivo anti-tumor efficacy of Bortezomib, MM.1S xenograft (Example 8); set-up: species or system Nu/Nu mice
Procedure: After in vitro resuscitation and passage of MM.1S cells to a sufficient amount, the cells were counted by a microscope, and diluted with a serum-free medium to adjust the cell count to about 1×10^8 cells/mL. The cell suspension was kept in an ice-water bath. The MM.1S cell suspension was extracted by a sterile syringe and inoculated into the subcutaneous tissue of the forelimb axilla of the Nu/Nu mice. […] Monotherapy group of Palbociclib: intragastric administration at 70 mg/kg, qd (the administration was commenced on day 0); […] The solvent group was given the solvent at the same frequency and with the same administration method as Bortezomib and NBP. The administration period was 16 days, and the administration volume was 10 mL/kg. […] Animals were weighed at set time once per day after the commencement of administration. After animals were grouped, the long diameter and the short diameter of the tumor were measured twice every week. […] V=1⁄2×A×B^2 […] (4) Tumor growth inhibition rate: Note: V: tumor volume; A: tumor length; B: tumor width; RTV: relative tumor volume; TVnd: tumor volume on day n; TV0d: tumor volume on day 0; […]: mean relative tumor volume on day n; TVXn: mean tumor volume of the therapy group on day n; TVX0: mean tumor volume of the therapy group on day 0; TVMn: mean tumor volume of the solvent group on day n; and TVM0: mean tumor volume of the solvent group on day 0 At the end of the experiment, after the animals were euthanized by CO2 asphyxiation, the tumors were excised and weighed.

[4] = PK of Bortezomib and butylphthalide in plasma of MM.1S tumor-bearing mice (Example 8); type: in vivo, Nu/Nu mice
Procedure: Monotherapy group of Bortezomib: administered by intraperitoneal injection at 0.5 mg/kg, biw (on days 0, 3, 7, 10, and 15);
Monotherapy group of NBP: administered by transoral gavage at 60 mg/kg, bid (the administration was commenced on day 0), and the second dose of NBP was administered with an interval from the first dose of ≥4 h;
Monotherapy group of Palbociclib: intragastric administration at 70 mg/kg, qd (the administration was commenced on day 0);
Combined therapy group of NBP/Bortezomib: the administration frequency and dose were the same as the frequency and dose of the monotherapy group of NBP and the monotherapy group of Bortezomib, respectively.
Combined therapy group of Bortezomib/Palbociclib: the administration frequency and dose were the same as the frequency and dose of the monotherapy group of Bortezomib and the monotherapy group of Palbociclib, respectively.
Combined therapy group of NBP/Bortezomib/Palbociclib: the administration frequency and dose were the same as the frequency and dose of the monotherapy group of NBP, the monotherapy group of Bortezomib, and the monotherapy group of Palbociclib, respectively.
Before administration of the last dose of Bortezomib (0 h), and 5 min, 15 min, 30 min, 1 h, 2 h, 4 h, 8 h, 24 h after the administration, blood was sampled (as detailed in Table 8) (except that blood was sampled from the mice in the solvent group only at 0 h), anticoagulated with heparin, and centrifuged to separate plasma, which was stored at −80° C. for later use. Bortezomib and butyphthalide in the plasma were determined by protein precipitation-LC/MS/MS.

MM.1S = test: In vitro tumor cell proliferation, MTT (Example 7); conditions: Homo sapiens, MM1.S, 72 h
Procedure: (§1) This experiment includes a monotherapy group of Bortezomib, a combined therapy group (Bortezomib/NBP), and a monotherapy group of NBP. Different drug concentration gradients were set for each group.
(§2) Monotherapy group of Bortezomib: (1) MM.1S, Jeko-1, and HT29 cells: Bortezomib was 1.5× serially diluted from an initial concentration of 20 nM to 8 concentrations: 20, 13.33, 8.89, 5.93, 3.95, 2.63, 1.76, and 1.17 nM, respectively; (2) A549 cells: Bortezomib was 2×serially diluted from an initial concentration of 200 nM to 8 concentrations: 200, 100, 50, 25, 12.5, 6.25, 3.13, and 1.56 nM, respectively; and (3) DU145 cells: Bortezomib was 2× serially diluted from an initial concentration of 100 nM to 8 concentrations: 100, 50, 25, 12.5, 6.25, 3.13, 1.56, and 0.78 nM, respectively.
(§3) Monotherapy group of NBP: NBP was 2× serially diluted from an initial concentration of 480 μM to 8 concentrations: 480, 240, 120, 60, 30, 15, 7.5, and 3.75 μM, respectively.
The action time of the drug was 72 h.
(§4) A certain number of conventionally cultured cells in logarithmic growth phase were inoculated in a 96-well plate with 100 μL per well. […] For adherent cells HT29, A549, and DU145, the above drugs were added 24 h after adherence. 3 replicate wells were set for each concentration of each drug, and blank wells (only culture medium was present, and no tumor cells were inoculated) and normal wells (a culture medium inoculated with tumor cells, drug concentration was 0) were set. The drugs functioned for 72 h, then MTT working solution (5 mg/mL) was added at 20 μL per well; after functioning at 37° C. for 4 h, the supernatant was removed, 150 μL of DMSO (analytically pure) was added; the mixture was fully mixed using a microplate oscillator, the plate was wiped clean, and the optical density (OD) at 550 nm was measured using a microplate reader.
(§5) The cell growth inhibition rate was computed using the following equation:
(§6) Inhibition rate (%)=(OD valuenormal well−OD valueadministration well)/(OD valuenormal well−OD valueblank well)×100%
(§7) Based on the inhibition rate of each concentration, the median inhibitory concentration IC50 of the drug was computed using SPSS19.0.

Jeko-1 = test: In vitro tumor cell proliferation, MTT (Example 7); conditions: Homo sapiens, JeKo-1, 72 h
Procedure: as §1, §2, §3
The action time of the drug was 72 h.
as §4, §5, §6, §7

DU145 = test: In vitro tumor cell proliferation, MTT (Example 7); conditions: Homo sapiens, DU-145, 72 h
Procedure: as §1, §2, §3
The action time of the drug was 72 h.
as §4, §5, §6, §7

[5] = day 14, Bor 0.5 mg/kg, Pal 70 mg/kg, NBP 60 mg/kg, alone or combined
[6] = day 14, Bor 0.5 mg/kg, Pal 70 mg/kg, NBP 60 mg/kg, alone or combined, mean, n=6
[7] = NBP 60 mg/kg gavage, Bor 0.5 mg/kg, Pal 70 mg/kg, mean ± SD, n=6
[8] = read-out: Inhibition rate, First dose
[9] = read-out: Inhibition rate, Mean ± SD
[10] = read-out: Inhibition rate, Second dose
[11] = read-out: Inhibition rate, Third dose

For `CCCCC1OC(=O)c2ccccc21` (stereo not shown) [NBP, 3-n-butylphthalide], the “influence of NBP on the PK behavior of ab-PTX in mice” value [1] was “did not affect”, the “influence of combined butylphthalide on the pharmacokinetic behavior of paclitaxel in the plasma” value [2] was “did not affect” and the “mechanical stimulus pain threshold (decrease in model rats)” value ([3]; day 20, NBP 10 and 30 mg/kg bid) was “significantly reversed”. The “body weights of the rats” value ([3]; day 21, NBP 3, 10 and 30 mg/kg bid gavage) was “not obviously changed”, the “thermal pain threshold (decrease in model rats)” value ([3]; day 21, NBP 3, 10 and 30 mg/kg bid) was “significantly reversed” and the “influence of NBP on the tumor inhibition efficacy of Bortezomib” value (MM.1S xenograft tumor; NBP/Bortezomib 60/0.5 mg/kg compared with monotherapy group of Bortezomib, end of experiment) was “did not have obvious negative influence”. For the same molecule, the “influence of NBP on the antitumor efficacy of combined therapy of Bortezomib/Palbociclib” value (MM.1S xenograft tumor; NBP/Bortezomib/Palbociclib compared with Bortezomib/Palbociclib, end of experiment) was “did not have obvious negative influence”, the “body weights of the mice” value (MM.1S xenograft tumor; between groups, P>0.05) was “no significant difference” and the Body weight (MM.1S xenograft tumor; day 14, Bor 0.5 mg/kg i.p. biw, Pal 70 mg/kg qd i.g., NBP 60 mg/kg bid gavage, alone or combined, mean, n=6) was 24.9 g. It also gave a T/C % (MM.1S xenograft tumor; [5]) of 73.8%, a TGI % (MM.1S xenograft tumor; [5]) of 25.8% and an RTV (MM.1S xenograft tumor; [6]) of 7.2. The TV (MM.1S xenograft tumor; [6]) was 938.1 mm^3, the “Tumor weight inhibition rate” value (MM.1S xenograft tumor; end of experiment, Bor 0.5 mg/kg, Pal 70 mg/kg, NBP 60 mg/kg, alone or combined) was 36.9% and the Tumor weight (MM.1S xenograft tumor; end of experiment, Bor 0.5 mg/kg, Pal 70 mg/kg, NBP 60 mg/kg, alone or combined, mean, n=6, in g (unit assumed)) was 1.040. The “influence of NBP on the in vivo pharmacokinetic behaviors of monotherapy of Bortezomib and combined therapy of Bortezomib/Palbociclib” value ([4]; NBP 60 mg/kg bid) was “did not have obvious influence”, the “CI of NBP” value [4, 7] was 2880 ± 1730 mL/min/kg and the “Vd of NBP” value [4, 7] was 1445 ± 298 L/kg. The AUC(0-t) ([4]; Nu/Nu, mouse, plasma, po, NBP 60 mg/kg gavage, Bor 0.5 mg/kg, Pal 70 mg/kg, mean ± SD, n=6, read-out: AUC0-t of NBP in plasma) was 236 ± 100 ng·h/mL, the Cmax ([4]; Nu/Nu, mouse, plasma, po, NBP 60 mg/kg gavage, Bor 0.5 mg/kg, Pal 70 mg/kg, mean ± SD, n=6, read-out: Cmax of NBP in plasma) was 117 ± 88 ng/mL and the MRT last ([4]; Nu/Nu, mouse, plasma, po, NBP 60 mg/kg gavage, Bor 0.5 mg/kg, Pal 70 mg/kg, mean ± SD, n=6, read-out: MRT0-t of NBP) was 3.1 ± 0.6 h. It also gave a half-life ([4]; Nu/Nu, mouse, plasma, po, NBP 60 mg/kg gavage, Bor 0.5 mg/kg, Pal 70 mg/kg, mean ± SD, n=6, read-out: t1/2 of NBP in plasma (converted)) of 10.1 ± 9.7 h, an inhibition at 30 µM (MM.1S; [8]) of 0.16% and an inhibition at 30 µM (MM.1S; [9]) of 12.1 ± 11.1%. The inhibition at 30 µM (MM.1S; [10]) was 14.1%, the inhibition at 30 µM (MM.1S; [11]) was 22.1% and the inhibition at 30 µM (Jeko-1; [8]) was -7.67%. It also gave an inhibition at 30 µM (Jeko-1; [9]) of -11.5 ± 6.32%, an inhibition at 30 µM (Jeko-1; [10]) of -18.8% and an inhibition at 30 µM (Jeko-1; [11]) of -8.11%. For the same molecule, the inhibition at 30 µM (DU145; [8]) was -2.22%, the inhibition at 30 µM (DU145; [9]) was 4.03 ± 5.88% and the inhibition at 30 µM (DU145; [10]) was 9.44%. The inhibition at 30 µM (DU145; [11]) was 4.87%.
